Patent publication US20260193274A1, “AKT1 MODULATORS” (Alterome Therapeutics, Inc., priority 2022, published 2026)

Target: T1, AKT1-E17K (Homo sapiens, UniProt P31749, E17K)
T1 construct: host or cells: HEK-293 (ATCC CRL-1573)
Test: NanoBRET Target Engagement (TE) Assay
Assay type: cell-based
Details: full length AKT E17K NanoLuc fusion in transfected HEK-293 cells; 2 hr equilibration with tracer and compound
Text: NanoBRET is a highly specific and validated cell-based technique for assessing target engagement (Vasta et al., 2018, Cell Chem Biol. 25(2):206-214). The NanoBRET™ Target Engagement (TE) Intracellular Kinase Assays are based on the NanoBRET™ System (Promega Corporation), an energy transfer technique designed to measure molecular proximity in living cells. The NanoBRET™ TE Assays measure the apparent affinity of test compounds by competitive displacement of the NanoBRET™ tracer compound, which is a cell permeable molecule engineered to be reversibly bound to a NanoLuc® luciferase-kinase fusion expressed in cells. For compound screening, when a test compound binds to the selected kinase, the BRET signal is attenuated. For kinase inhibitors in particular, intracellular target selectivity is fundamental to pharmacological mechanism and allows the proteins of interest to be in the correct cellular confirmation. Although non-cell-based techniques have been developed to measure kinase binding or enzymatic inhibition with accuracy and precision, such approaches can fail to accurately predict engagement of the full-length target protein in the more complex and biologically relevant cellular context (Knight and Shokat, 2005, Chem. Biol. 12, 621-637; Smyth and Collins, 2009, J. Chem. Biol. 2, 131-151). […] Briefly, HEK-293 cells (ATCC Cat #CRL-1573) were used for transfection purposes using FuGENE HD Transfection Reagent (Promega Cat #E2311). All cells were evaluated for viability prior to transfection and optimization of the transfection was done prior to experimentation. Greater than 95% viability was used for all experiments. Following transfection, cells were washed and resuspended in Opti-MEM. NanoBRET assays were performed in white, 384-well plates (Corning) at a density of 2×10^5 cells/well. All example compounds were prepared as concentrated stock solutions in DMSO (Sigma-Aldrich). Compounds are dissolved in DMSO to make 10 mM stock solution. Example compounds were transferred as 40 μL of 10 mM stock solution to a 384 pp-plate (LABCYTE, PP-0200) and diluted in 3-fold, 10-point dilution via transferring […] by Apricot liquid handler. A Labcyte ECHO 550 compound dispenser was used to facilitate compound transfer directly to cells. Cells were equilibrated for 2 hr with energy transfer probes and example compound prior to BRET measurements. The AKTE17K (Promega Cat #NV2421) as well as specific probe (NanoBRET tracer, Promega Cat #N264B) was prepared at a concentration of 20× in tracer dilution buffer (12.5 mM HEPES, 31.25% PEG-400, pH 7.5). For target engagement analysis, the energy transfer probes were added to the cells at concentrations optimized for the target in question (AKT E17K). Following compound incubation, NanoBRET NanoGlo Substrate (Promega Cat #N157D) and Extracellular Nanoluc Inhibitor (Promega Cat #N235C) was added according to the manufacturer's recommended protocol, and luminescence was measured on Envision Reader (Perkin Elmer) Multimode Luminometer equipped with 450 nmBPfilter (donor) and 600 nmLPfilter (acceptor), using 0.5 s integration time. Milli-BRET units (mBU) are calculated by multiplying the raw BRET values by 1000. Apparent tracer affinity values (EC50) were determined using the sigmoidal dose-response (variable slope). Competitive displacement data were then plotted and data were fit to determine the EC50 value for each example compound.

T1 sequence (P31749 whole entry E17K): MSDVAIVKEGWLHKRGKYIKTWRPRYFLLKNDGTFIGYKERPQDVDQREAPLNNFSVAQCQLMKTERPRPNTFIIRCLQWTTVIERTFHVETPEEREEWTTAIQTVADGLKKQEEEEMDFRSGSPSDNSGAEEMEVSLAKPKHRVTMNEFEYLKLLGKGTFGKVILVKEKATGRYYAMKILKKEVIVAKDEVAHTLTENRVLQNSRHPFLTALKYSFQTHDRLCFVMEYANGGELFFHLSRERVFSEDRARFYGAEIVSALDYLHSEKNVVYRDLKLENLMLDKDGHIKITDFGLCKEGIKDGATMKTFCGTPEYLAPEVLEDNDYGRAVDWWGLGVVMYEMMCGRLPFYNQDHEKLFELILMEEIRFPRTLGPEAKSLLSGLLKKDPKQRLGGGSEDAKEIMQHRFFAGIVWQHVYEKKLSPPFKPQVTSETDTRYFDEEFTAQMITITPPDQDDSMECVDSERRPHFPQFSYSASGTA

| IC50 [nM] | SMILES |
| --- | --- |
| > 600 | C[C@@H]1CN(Cc2ccc(-n3c(-c4cccnc4N)nc4ccc(-c5ccccc5)nc43)cc2)CCN1C#N [Example 27, (R)-4-(4-(2-(2-Aminopyridin-3-yl)-5-phenyl-3H-imidazo[4,5-b]pyridin-3-yl)benzyl)-2-methylpiperazine-1-carbonitrile] |
| < 15 | N#CNN1CCN(Cc2ccc(-n3c(-c4cccnc4N)nc4ccc(-c5ccccc5)nc43)cc2)CC1 [Example 42, N-(4-(4-(2-(2-Aminopyridin-3-yl)-5-phenyl-3H-imidazo[4,5-b]pyridin-3-yl)benzyl)piperazin-1-yl)cyanamide] |
| 15 to 60 | N#CN1CC2(C1)CN(Cc1ccc(-n3c(-c4cccnc4N)nc4ccc(-c5ccccc5)nc43)cc1)C2 [Example 5, 6-(4-(2-(2-Aminopyridin-3-yl)-5-phenyl-3H-imidazo[4,5-b]pyridin-3-yl)benzyl)-2,6-diazaspiro[3.3]heptane-2-carbonitrile] |
| 60 to 600 | N#CN1C[C@H]2C[C@@H]1CN2Cc1ccc(-n2c(-c3cccnc3N)nc3ccc(-c4ccccc4)nc32)cc1 [Example 35, (1R,4R)-5-(4-(2-(2-Aminopyridin-3-yl)-5-phenyl-3H-imidazo[4,5-b]pyridin-3-yl)benzyl)-2,5-diazabicyclo[2.2.1]heptane-2-carbonitrile] |
| 15 to 60 | N#CN1CCC2(CCN(Cc3ccc(-n4c(-c5cccnc5N)nc5ccc(-c6ccccc6)nc54)cc3)C2)C1 (stereo not shown) [Example 19, 7-(4-(2-(2-Aminopyridin-3-yl)-5-phenyl-3H-imidazo[4,5-b]pyridin-3-yl)benzyl)-2,7-diazaspiro[4.4]nonane-2-carbonitrile] |
| < 15 | CC(=O)Nc1cccc(-c2ccc3nc(-c4cccnc4N)n(-c4ccc(CN5CCC(NC#N)CC5)cc4)c3n2)c1 [Example 4, N-(3-(2-(2-Aminopyridin-3-yl)-3-(4-((4-cyanamidopiperidin-1-yl)methyl)phenyl)-3H-imidazo[4,5-b]pyridin-5-yl)phenyl)acetamide] |
| 15 to 60 | N#CN[C@@H]1CCCN(Cc2ccc(-n3c(-c4cccnc4N)nc4ccc(-c5ccccc5)nc43)cc2)C1 [Example 9, (R)—N-(1-(4-(2-(2-Aminopyridin-3-yl)-5-phenyl-3H-imidazo[4,5-b]pyridin-3-yl)benzyl)piperidin-3-yl)cyanamide] |
